Source: patent publication US20210130291A1, “METHODS FOR TREATING DIABETES USING VDAC1 INHIBITORS” (THE NATIONAL INSTITUTE FOR BIOTECHNOLOGY IN THE NEGEV LTD., priority 2016, published 2021)
“Also recorded” adds a separate entry of the source.

Experiments:
islets of C57/BL mice = assay: ATP content and GSIS in islets of control C57/BL mice; assay type: cell-based, mouse; conditions: VDAC1 antibody 10 nM
Procedure: 5 weeks old db/db mice and control (C57/bl) (Janvier Laboratory, France), weighing 18-25 g, were used throughout the experiments. They were given a standard pellet diet (B&K) and tap water ad libitum. The experimental procedures were approved by the Ethics Committee for Animal Research at Lund University. Isolation of pancreatic islets was performed by retrograde injection of a collagenase solution via the bile-pancreatic duct and islets were then collected under a stereomicroscope at room temperature.
(§1) Human pancreatic islets were collected under a stereomicroscope at room temperature and cultured at 5.5 or 20 mM glucose in the absence or presence of test agents for 72 h. Thereafter the islets were washed and preincubated for 30 min at 37° C. in Krebs Ringer bicarbonate buffer, pH 7.4, supplemented with N-2 hydroxyethylpiperazine-N′-2-ethanesulfonic acid (10 mM), 0.1% bovine serum albumin, and 1 mM glucose. Each incubation vial contained 12 islets in 1.0 ml KRB buffer solution and treated with 95% O2 and 5% CO2 to obtain constant pH and oxygenation. After preincubation, the buffer was changed to a medium containing either 1 mM or 16.7 mM glucose. The islets were then incubated for 1 h at 37° C. in a metabolic shaker (30 cycles per min). Immediately after incubation an aliquot of the medium was removed for analysis of insulin and the islets were incubated in acid-ethanol for insulin content determination by radioimmunoassay.
(§2) ATP release from isolated mouse or human islets or from INS-1 cells after transfection with mitochondrial targeted VDAC1 (mtVDAC1) or plasma membrane targeted VDAC1 (plVDAC1) plasmids was determined using a luminometric assay kit according to manufacturer's recommendation (Biovision). After incubation of islets (50/vial) or INS-1 cells for 60 min, an aliquot of the media was removed for subsequent measurements of released ATP. Then the islets or INS-1 cells were washed 3 times and the lysates were used for measurements of ATP and protein contents followed the protocol provided by the vendor.

[1] = system: VDAC1 expression in INS-1 cells; assay: VDAC1 expression in INS-1 cells cultured at 5 or 20 mM glucose; assay type: cell-based, rat
Procedure: INS-1 832/13 cells (kindly donated by Dr. C. B. Newgaard, Duke University, USA) were cultured in RPMI-1640 containing 11.1 mM D-glucose and supplemented with 10% fetal bovine serum, 100 U/ml penicillin (Gibco), 100 µg/ml streptomycin (Gibco), 10 mM HEPES, 2 mM glutamine, 1 mM sodium pyruvate, and 50 µM β-mercaptoethanol (Sigma), at 37° C. in a humidified atmosphere containing 95% air and 5% CO2. For VDAC1 over-expression by VDAC1 plasmid (1 μg/ml) and VDAC2 down-regulation by and siRNA, INS1 832/13 cells were cultured to 60% confluence. To study the long-term effects (24-72 h) of high glucose (20 mM) (glucotoxicity) compared to basal glucose (5 mM), INS-1 832/13 cells were cultured with RPMI 1640 complete media (Ahmed, M., et al., 2010. Islets 2, 283-292) in the presence or absence of indicated agents and thereafter VDAC1 expression, cell viability and function was measured.
Total RNA from handpicked mouse islets, human donor islets (Diabetic and non-diabetic) or INS1 832/13 cells were extracted using RNAeasy (Qiagen, Hilden, Germany). RNA ([…]) was used for cDNA synthesis with SuperScript (Invitrogen, Carlsbad, Calif., USA). Concentration and purity of total RNA was measured with a NanoDrop ND-1000 spectrophotometer (A260/A280>1.9 and A260/A230>1.4) (NanoDrop Technologies, Wilmington, Del.) and RNA Quality Indicator (RQI) higher than 8.0 (Experion Automated Electrophoresis, Bio-Rad, USA) was considered to be high-quality total RNA preparations. A 10 μl of reaction mixture with 20 ng cDNA, 5 μl TaqMan mastermix (Applied Biosystems, Foster City, Calif., USA), and 100 nM TagMan gene expression assay were run in a 7900HT Fast Real-Time System (Applied Biosystems). The qPCR was carried out as follows: 50° C. for 2 minutes, 95° C. for 10 minutes, 40 cycles of 95° C. for 15 seconds, and 60° C. for 1 minute. The amount of mRNA was calculated relative to the amount of housekeeping genes (GAPDH, PPIA or HPRT) mRNA in the same sample by the formula X0/R0=2CtR-CtX, where X0 is the original amount of mRNA for the gene of interest, R0 is the original amount of HPRT mRNA, CtR the Ct value for HPRT, and CtX the Ct value for the gene of interest. Primer sequences are provided upon request.

[2] = target: T1, plasma membrane targeted VDAC1 (plVDAC1) (Mus musculus, UniProt Q60932); assay: ATP release and ATP content of INS-1 cells transfected with plasma membrane targeted VDAC1; assay type: cell-based; conditions: for ATP release: racemate and enantiomers (FIG. 9a)
T1 construct: expressed in transfected cells; host or cells: INS-1 832/13 cells (rat insulinoma), transient transfection; plasmid a gift from Dr. R. Buettner
T1 sequence (Q60932 whole entry): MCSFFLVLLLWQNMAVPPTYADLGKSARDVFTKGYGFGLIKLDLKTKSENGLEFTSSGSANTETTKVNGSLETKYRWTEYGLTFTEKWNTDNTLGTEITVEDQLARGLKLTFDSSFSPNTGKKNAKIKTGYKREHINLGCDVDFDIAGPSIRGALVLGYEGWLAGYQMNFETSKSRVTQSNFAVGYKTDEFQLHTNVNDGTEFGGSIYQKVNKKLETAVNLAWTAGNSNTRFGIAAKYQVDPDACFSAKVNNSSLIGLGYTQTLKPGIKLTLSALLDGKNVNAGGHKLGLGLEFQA
Procedure: as §2
INS-1 cells were transiently transfected with a plasmid encoding plasma membrane targeted VDAC1 (pVDAC1) as described in the Material and Method section herein above and in Example 3 (see also Buettner et al 2000. PNAS 97:3201-3206). After transfection (24-32 h and 2-4 h recovery in normal culture medium, RPMI 1640 with complete supplement) the INS-1 cells were washed followed by preincubation in SAB-buffer (See Material and Method above) containing 2.8 mM glucose. The final 1 h incubation was performed in SAB-buffer containing 1 mM glucose and the VDAC1 inhibitory compounds to be tested. At the end, the cells were lysed using lysis buffer, sonicated and the lysate as well as the incubation medium were analyzed for ATP content using a commercially available kit (Biovision, K354-100). Cellular protein content was analyzed by Pierce™ BCA protein assay kit (Thermo Scientific, USA).

islets from T2D donors = assay: ATP content and GSIS in islets from T2D donors, acute addition of VDAC1 inhibitors; assay type: cell-based, human
Source text: Human pancreatic islets were obtained through collaboration between Human Tissue Laboratory within Lund University Diabetes Centre (LUDC) and the Nordic Network for Clinical Islet Transplantation (Prof. Olle Korsgren, Uppsala University, Sweden). Donors were grouped according to HbA1c i.e. less than 6% (ND), between 6% and 6.5% (IGT), higher than 6.5% or history of diabetes (T2D). The human islets (70-90% purity) had been cultured in CMRL 1066 (ICN Biomedicals, Costa Mesa, Calif.) supplemented with 10 mM HEPES, 2 mM L-glutamine, […] gentamicin, […] fungizone (Gibco, BRL, Gaithersburg, Md.), 20 μg/ml ciprofloxacin (Bayer Healthcare, Leverkusen, Germany) and 10 mM nicotinamide at 37° C. (5% CO2) for 1 to 5 days prior to the arrival in the laboratory. The islets were then hand-picked under stereomicroscope prior to use. All procedures using human islets were approved by the ethical committees at Uppsala and Lund Universities, Sweden.
as §1, §2

[3] = plVDAC1-transfected INS-1 cells, 1 h at 1 mM glucose

With O=C1CC(N2CCC(Nc3ccc(OC(F)(F)F)cc3)CC2)C(=O)N1c1ccc(Cl)cc1 (centres unmarked) [AKOS, 1-(4-Chloro-phenyl)-3-[4-(4-trifluoromethoxy-phenylamino)-piperidin-1-yl]-pyrrolidine-2,5-dione] the GSIS (islets of C57/BL mice; others 20 μM (FIG. 7e)) was “do not affect”, the ATP content (islets of C57/BL mice; others 20 μM (FIG. 7d)) was “do not affect” and the “glucose evoked VDAC1 upregulation (total VDAC1 expression)” value ([1]; INS-1 cells cultured 72 h at 20 mM glucose, VDAC1ab 10 nM, metformin, AKOS, VBIT-4 20 μM each (FIG. 4l, 4m)) was “abrogated the glucose evoked VDAC1 upregulation”. For the same compound, the “ATP release (loss of cellular ATP)” value ([2]; plVDAC1-transfected INS-1 cells, 1 h at 1 mM glucose, VDAC1-ab 10 nM, metformin, AKOS, VBIT-4 20 μM each (FIG. 4c)) was “prevented; also recorded: rapidly inhibited”, the GSIS (islets from T2D donors; T2D islets, acute addition 1 h (FIG. 6f)) was “increased in parallel with the improved ATP generation” and the “islet ATP content” value (islets from T2D donors; islets from 5 T2D donors and one IGT donor, 1 h, at 1 and 16.7 mM glucose (FIG. 6e)) was “increased islet ATP content”.

For O=C(CC(CO)N1CCN(c2ccc(OC(F)(F)F)cc2)CC1)Nc1ccc(Cl)cc1 (centres unmarked) [VBIT-4-2], the ATP release [2, 3] was “efficiently inhibit ATP release”.

For O=CC[C@@H](O)[C@H](O)[C@H](O)CO [2-deoxyglucose, reference compound], the VDAC1 expression ([1]; INS-1 cells, 2-deoxyglucose, data not shown) was “increased VDAC1 expression”.

For CC1(C)C(=O)N([C@H]2CCc3c(O)cccc32)c2nc(Nc3cccc(CN4CCCC4)c3)ncc21 [MRT199665, reference compound], the “effect of AMPK inhibitor on metformin-inhibited ATP release” value ([2]; plVDAC1 transfected INS-1 cells, MRT199665 5 μM with metformin (FIG. 4i)) was “neither attenuated”.

For O=C(CC(CO)N1CCN(c2ccc(OC(F)(F)F)cc2)CC1)Nc1ccc(Cl)cc1 (centres unmarked) [VBIT-4-1], the ATP release [2, 3] was “efficiently inhibit ATP release” and the “cellular ATP content” value ([2]; plVDAC1-transfected INS-1 cells, 1 h at 1 mM glucose, racemate and enantiomers (FIG. 9b)) was “increase cellular ATP content”.
